Reference: article PMC12481576, “Barbituric Acid Derivatives as Covalent Inhibitors of Leishmania braziliensis Dihydroorotate Dehydrogenase” (Journal of Medicinal Chemistry, 2025)
“And” between values parts separate entries of the source, which are not always exact repeats. Equal entries are not always repeated. Where two headings read alike, the source gives them in different places.

Assays:
[1] = for Raw data: analyte peak area, T=0: 0 min; for Raw data: analyte peak area, T=0 / Raw data: analyte peak area, T=5 / Raw data: analyte peak area, T=10 / Raw data: analyte peak area, T=20: raw LC-MS area; for Raw data: analyte peak area, T=5: 5 min; for Raw data: analyte peak area, T=10: 10 min; for Raw data: analyte peak area, T=20: 20 min
in vitro = conditions: microsomes; for microsomal CLint at 1 μM / remaining at 5 min, 1 μM: male, CD1, mouse; for remaining at 5 min, 1 μM / remaining at 10 min, 1 µM / remaining at 20 min, 1 µM / remaining at 0.5 h, 1 µM / remaining at 1 h, 1 µM: pH 7.4, % Remaining; for remaining at 5 min, 1 μM: T=5 min; for remaining at 10 min, 1 µM / remaining at 20 min, 1 µM / remaining at 0.5 h, 1 µM / remaining at 1 h, 1 µM: mouse; for remaining at 10 min, 1 µM: T=10 min; for remaining at 20 min, 1 µM: T=20 min; for remaining at 0.5 h, 1 µM: T=30 min, 30 min; for remaining at 1 h, 1 µM: T=60 min, 60 min
[2] = Parallel artificial membrane permeability assay (PAMPA); conditions: for recovery at 6 h, 10 µM: PAMPA
Experimental: Solutions of the compounds were prepared in duplicate by diluting the stock solutions (10 mM) in phosphate buffered saline (PBS) pH 7.4 at a final concentration of 10 μM (5% DMSO). The solutions diluted in PBS pH 7.4 were then added to the donor portion of the plate (300 μL/well), while in the acceptor portion PBS pH 7.4 (200 μL/well) was added. The two portions of the plate were then coupled, and the system was incubated for 6 h at room temperature. Samples of the initial donor solution (T0) were collected at the beginning (T0) and stored at 5 °C. The final concentrations of compounds in the donor, acceptor and T0 wells were quantified by LC-MS/MS.

LbDHODH = LbDHODH (Leishmania braziliensis, UniProt E9AI53); assay: biochemical; conditions: for IC50: LbDHODH
LbDHODH, sequence (E9AI53 entry or part of it): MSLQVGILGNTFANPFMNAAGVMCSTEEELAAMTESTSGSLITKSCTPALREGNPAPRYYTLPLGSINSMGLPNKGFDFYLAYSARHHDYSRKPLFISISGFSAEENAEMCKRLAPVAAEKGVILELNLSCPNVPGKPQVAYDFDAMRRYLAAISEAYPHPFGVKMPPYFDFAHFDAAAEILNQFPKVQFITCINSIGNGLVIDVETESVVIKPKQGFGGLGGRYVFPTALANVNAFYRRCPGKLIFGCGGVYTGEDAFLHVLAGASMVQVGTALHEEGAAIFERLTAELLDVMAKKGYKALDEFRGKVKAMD
Method in brief: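 Screened at 100 μM with and without 4-h enzyme preincubation; DCIP reduction during DHO oxidation read at 610 nm every 3 s for 60 s in 50 mM Tris pH 8.15, 150 mM KCl, 0.1% Triton X-100, triplicate, 5% DMSO control. kinact/KI taken as slope of kobs versus inhibitor concentration (initial linear region).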

[3] = test system: Leishmania braziliensis promastigotes; assay: Leishmanicidal activity, promastigote growth (SYBR Green, 72 h); assay type: cell-based, Leishmania (V.) braziliensis (MHOM/BR/1975/M2904); conditions: Leishmania braziliensis, L. braziliensis promastigotes, max 200 μM
Method in brief: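 Promastigotes seeded at 4 × 10^6 parasites/mL with compounds in decreasing concentrations up to 200 μM, 0.5% DMSO final, 72 h.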

[4] = Mouse liver microsome stability in the absence of cofactors (NCF); conditions: 60 min, no cofactor (NCF); for Raw data: analyte peak area, T=60 NCF: mouse liver microsomes, raw LC-MS area; for remaining at 1 h, 1 µM: mouse, microsomes, pH 7.4, % Remaining, T=60 NCF
[5] = Cell viability / cytotoxicity assay (PrestoBlue, 72 h); assay type: cell-based; conditions: human; THP-1 cell line, 72 h, max 200 μM; read-out: CC50
Method in brief: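 PMA-differentiated THP-1 cells (150 ng/mL PMA, 48 h; then 24 h in fresh medium) were exposed to compounds in serial dilution from 200 μM for 72 h at 37 °C, 5% CO2. Viability was read by PrestoBlue fluorescence (ex 560/em 590 nm) after 2 h.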

[6] = mouse liver microsomes, replicate 1 (left block)
[7] = mouse liver microsomes, replicate 2 (right block)
[8] = n=1, mouse liver microsomes, n=1
[9] = n=2, mouse liver microsomes, n=2
[10] = average of n=2, 10µM, PBS pH 7.4/7.4, 6h at room temperature
[11] = 0 h, pH 8.15, read-out: LbDHODH Activity±SD (%)
[12] = 4 h, pH 8.15, read-out: LbDHODH Activity±SD (%)

With `O=C1NC(=O)C(=Cc2ccc(N3CCOCC3)cc2[N+](=O)[O-])C(=O)N1` [2e, 5-(4-Morpholino-2-nitrobenzylidene)pyrimidine-2,4,6(1H,3H,5H)-trione] the “Calculated T-half (min), Average” value ([1]; mouse liver microsomes (CD1 male), 0.4 mg/ml protein, test conc 1 µM, average of n=1 and n=2) was 298.4 min, the “Calculated T-half (min), n=1” value ([1]; mouse liver microsomes (CD1 male), 0.4 mg/ml protein, test conc 1 µM, replicate n=1) was 354.59 min and 354.6 min and the “Calculated T-half (min), n=2” value ([1]; mouse liver microsomes (CD1 male), 0.4 mg/ml protein, test conc 1 µM, replicate n=2) was 242.28 min and 242.3 min. The “Raw data: analyte peak area, T=0” value [1, 6] was 18699, the “Raw data: analyte peak area, T=0” value [1, 7] was 19500 and the “Modified T-half (min), Average” value ([1]; mouse liver microsomes, 0.4 mg/ml, 1 µM, average, limited to T Half range 3.00 - […]) was over 120.0 min. For the same compound, the “Raw data: analyte peak area, T=5” value [1, 6] was 18869, the “Raw data: analyte peak area, T=5” value [1, 7] was 20171 and the “Raw data: analyte peak area, T=10” value [1, 6] was 18566. The “Raw data: analyte peak area, T=10” value [1, 7] was 21617, the “Raw data: analyte peak area, T=20” value [1, 6] was 17411 and the “Raw data: analyte peak area, T=20” value [1, 7] was 21071. The “mouse liver microsomes T-half” value ([1]; mouse liver microsomes, NADPH, 1 μM) was over 120.0 min, the microsomal CLint at 1 μM (in vitro; pH 7.4) was under 14.4 µL/min/mg and the remaining at 5 min, 1 μM (in vitro; [8]) was 91.8%. It also gave a remaining at 5 min, 1 μM (in vitro; [9]) of 103%, a microsomal CLint at 1 μM (in vitro; pH 7.4, mouse liver microsomes CLint, app, mouse liver microsomes, NADPH, 1 μM) of under 14.4 µL/min/mg and a remaining at 10 min, 1 µM (in vitro; [8]) of 96%. The remaining at 10 min, 1 µM (in vitro; [9]) was 109%, the remaining at 20 min, 1 µM (in vitro; [8]) was 83.8% and the remaining at 20 min, 1 µM (in vitro; [9]) was 99.7%. For the same compound, the remaining at 0.5 h, 1 µM (in vitro; [8]) was 85%, the remaining at 0.5 h, 1 µM (in vitro; [9]) was 91.7% and the remaining at 1 h, 1 µM (in vitro; [8]) was 87.6%. The remaining at 1 h, 1 µM (in vitro; [9]) was 88.8%, the “Remarks (PAMPA)” value ([2]; 10µM, PBS pH 7.4/7.4, 6h at room temperature, LC-MS/MS) was “No peak detected in acceptor samples” and the recovery at 6 h, 10 µM ([2]; pH 7.4, % Recovery n=1, replicate n=1, 10µM, PBS pH 7.4/7.4, 6h at room temperature) was 95.1%. For the same compound, the recovery at 6 h, 10 µM ([2]; pH 7.4, % Recovery n=2, replicate n=2, 10µM, PBS pH 7.4/7.4, 6h at room temperature) was 101%, the recovery at 6 h, 10 µM ([2]; pH 7.4, Avg % Recovery, average of n=2, 10µM, PBS pH 7.4/7.4, 6h at room temperature) was 98.2% and the “Avg Log Pe (cm/sec)” value [2, 10] was -9.4 cm/sec and -9.35 cm/sec. For the same compound, the “Avg Pe” value [2, 10] was 0.000444 ×10⁻⁶ cm/s, the “LogPe (cm/sec) n1” value ([2]; replicate n1, calculation section, 10µM, PBS pH 7.4/7.4, 6h) was -9.34 cm/sec and the “LogPe (cm/sec) n2” value ([2]; replicate n2, calculation section, 10µM, PBS pH 7.4/7.4, 6h) was -9.37 cm/sec. The “Pe (nm/sec) n=1” value ([2]; replicate n=1, 10µM (5% DMSO), PBS pH 7.4/7.4, 6h at room temperature, LC-MS/MS) was 0.00461 nm/s, the “% Recovery n=1” value ([2]; replicate n=1, 10µM, PBS pH 7.4/7.4, 6h at room temperature) was 95.05% and the “Pe (nm/sec) n=2” value ([2]; replicate n=2, 10µM (5% DMSO), PBS pH 7.4/7.4, 6h at room temperature, LC-MS/MS) was 0.00426 nm/s. For the same compound, the activity at 0.048828 µM (LbDHODH; [11]) was 87 ± 1%, the activity at 0.0976562 µM (LbDHODH; [11]) was 92 ± 1% and the activity at 0.195312 µM (LbDHODH; [11]) was 94 ± 1%. For the same compound, the activity at 0.390625 µM (LbDHODH; [11]) was 79 ± 3%, the activity at 0.78125 µM (LbDHODH; [11]) was 83 ± 4% and the activity at 1.5625 µM (LbDHODH; [11]) was 71 ± 2%. It also gave an activity at 3.125 µM (LbDHODH; [11]) of 67 ± 4%, an activity at 6.25 µM (LbDHODH; [11]) of 45 ± 3% and an activity at 12.5 µM (LbDHODH; [11]) of 31 ± 4%. It also gave an activity at 25 µM (LbDHODH; [11]) of 22 ± 1%, an activity at 50 µM (LbDHODH; [11]) of 7 ± 5% and an activity at 100 µM (LbDHODH; [11]) of 10 ± 1%. The activity at 0.048828 µM (LbDHODH; [12]) was 104 ± 4%, the activity at 0.0976562 µM (LbDHODH; [12]) was 107 ± 3% and the activity at 0.195312 µM (LbDHODH; [12]) was 104 ± 3%. It also gave an activity at 0.390625 µM (LbDHODH; [12]) of 106 ± 7%, an activity at 0.78125 µM (LbDHODH; [12]) of 103 ± 1% and an activity at 1.5625 µM (LbDHODH; [12]) of 85 ± 2%. The activity at 3.125 µM (LbDHODH; [12]) was 87 ± 2%, the activity at 6.25 µM (LbDHODH; [12]) was 87 ± 2% and the activity at 12.5 µM (LbDHODH; [12]) was 60 ± 8%. It also gave an activity at 25 µM (LbDHODH; [12]) of 67 ± 6%, an activity at 50 µM (LbDHODH; [12]) of 35 ± 4% and an activity at 100 µM (LbDHODH; [12]) of 13 ± 1%. It also gave an IC50 (LbDHODH; IC50 0 h, without preincubation) of 5 ± 1 µM, an IC50 (LbDHODH; IC50 4 h, 4-h preincubation) of 28 ± 3 µM and an activity at 100 µM (LbDHODH; read-out: Single dose (0h) % activity) of 10 ± 1%. The activity at 100 µM (LbDHODH; read-out: Single dose (4h) % activity) was 7 ± 2%, the inhibition at 100 µM (LbDHODH; read-out: enzyme inhibition) was 90 to 93% and the EC50 [3] was 17 ± 11 µM. For the same compound, the “Raw data: analyte peak area, T=60 NCF” value ([4]; replicate 1 (left block)) was 19133, the “Raw data: analyte peak area, T=60 NCF” value ([4]; replicate 2 (right block)) was 18454 and the remaining at 1 h, 1 µM [4, 8] was 100%. For the same compound, the remaining at 1 h, 1 µM [4, 9] was 93.1% and the CC50 at 72 h [5] was over 200 µM.
